Columns and labels:
[1] = system: Lolium rigidum; experiment: Herbicidal activity against Lolium rigidum accession A07 assessed as emergence rate applied at 4 times pre-emergence recommended rate relative to untreated control; assay type: functional
[2] = system: Lolium rigidum; experiment: Herbicidal activity against Lolium rigidum accession A07 assessed as emergence rate applied at 1 times pre-emergence recommended rate applied in pots where terbufos had been incorporated into the soil relative to untreated control; assay type: functional
[3] = system: Lolium rigidum; experiment: Herbicidal activity against Lolium rigidum accession A10 assessed as fresh weight reduction applied at 1 times pre-emergence recommended rate applied in pots where terbufos had been incorporated into the soil relative to untreated control; assay type: functional; set-up: scale not given: the % may be the effect or the level left
[4] = system: Lolium rigidum; experiment: Herbicidal activity against Lolium rigidum accession A08 assessed as fresh weight reduction applied at 1 times pre-emergence recommended rate relative to untreated control; assay type: functional; set-up: scale not given: the % may be the effect or the level left
[5] = system: Lolium rigidum; experiment: Herbicidal activity against Lolium rigidum accession A12 assessed as emergence rate applied at 1 times pre-emergence recommended rate relative to untreated control; assay type: functional
[6] = system: Lolium rigidum; experiment: Herbicidal activity against Lolium rigidum accession A10 assessed as emergence rate applied at 1 times pre-emergence recommended rate relative to untreated control; assay type: functional
[7] = system: Lolium rigidum; experiment: Herbicidal activity against Lolium rigidum accession A03 assessed as emergence rate applied at 1 times pre-emergence recommended rate relative to untreated control; assay type: functional
[8] = system: Lolium rigidum; experiment: Herbicidal activity against Lolium rigidum accession A15 assessed as emergence rate applied at 1 times pre-emergence recommended rate applied in pots where terbufos had been incorporated into the soil relative to untreated control; assay type: functional
[9] = system: Lolium rigidum; experiment: Herbicidal activity against Lolium rigidum accession A09 assessed as emergence rate applied at 4 times pre-emergence recommended rate relative to untreated control; assay type: functional
[10] = system: Lolium rigidum; experiment: Herbicidal activity against Lolium rigidum accession A04 assessed as emergence rate applied at 1 times pre-emergence recommended rate relative to untreated control; assay type: functional
[11] = biological target: T1, Acetolactate synthase (Lolium rigidum) (UniProt A7XBP7); experiment: Resistance index, ratio of I50 for acetolactate synthase Pro-197/Pro-197 mutant in Lolium rigidum accession A10 leaves extracts to I50 for acetolactate synthase in Lolium rigidum accession A01 leaves extracts
T1 sequence (whole entry): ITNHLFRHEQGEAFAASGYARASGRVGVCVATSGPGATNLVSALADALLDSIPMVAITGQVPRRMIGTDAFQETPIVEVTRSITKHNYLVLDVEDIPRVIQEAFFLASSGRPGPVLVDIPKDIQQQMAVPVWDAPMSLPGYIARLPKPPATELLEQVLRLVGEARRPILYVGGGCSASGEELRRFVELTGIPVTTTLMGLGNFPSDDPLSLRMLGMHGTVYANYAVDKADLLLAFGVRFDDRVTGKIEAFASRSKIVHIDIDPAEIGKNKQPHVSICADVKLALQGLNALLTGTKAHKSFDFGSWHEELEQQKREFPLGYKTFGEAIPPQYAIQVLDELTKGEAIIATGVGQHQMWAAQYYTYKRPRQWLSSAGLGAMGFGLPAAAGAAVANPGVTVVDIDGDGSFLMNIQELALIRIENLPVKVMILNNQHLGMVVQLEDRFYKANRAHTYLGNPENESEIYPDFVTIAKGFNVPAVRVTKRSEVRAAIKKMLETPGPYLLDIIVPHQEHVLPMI

[12] = system: Lolium rigidum; experiment: Herbicidal activity against Lolium rigidum accession A06 assessed as emergence rate applied at 1 times pre-emergence recommended rate relative to untreated control; assay type: functional
[13] = system: Lolium rigidum; experiment: Herbicidal activity against Lolium rigidum accession A08 assessed as emergence rate applied at 4 times pre-emergence recommended rate relative to untreated control; assay type: functional
[14] = system: Lolium rigidum; experiment: Herbicidal activity against Lolium rigidum accession A02 assessed as fresh weight reduction applied at 1 times pre-emergence recommended rate relative to untreated control; assay type: functional; set-up: scale not given: the % may be the effect or the level left
[15] = system: Lolium rigidum; experiment: Herbicidal activity against Lolium rigidum accession A08 assessed as emergence rate applied at 1 times pre-emergence recommended rate applied in pots where terbufos had been incorporated into the soil relative to untreated control; assay type: functional
[16] = system: Lolium rigidum; experiment: Herbicidal activity against Lolium rigidum accession A01 assessed as fresh weight reduction applied at 1 times pre-emergence recommended rate applied in pots where terbufos had been incorporated into the soil relative to untreated control; assay type: functional; set-up: scale not given: the % may be the effect or the level left

COc1nc(C)nc(NC(=O)NS(=O)(=O)c2ccccc2Cl)n1 [CHLORSULFURON]
Activity [1]: 34%
Activity [2]: 85%
Activity [3]: 97%
Activity [4]: 9%
Activity [5]: 2%
Activity [6]: 68%
Activity [7]: 1%
Activity [8]: 0%
Activity [9]: 1%
Activity [10]: 2%
Ratio [11]: 1
Activity [12]: 89%
Activity [13]: 45%
Activity [14]: 96%
Activity [15]: 91%
Activity [16]: 99%

Source: ChEMBL document CHEMBL3046358, “Multiple Pro-197 substitutions in the acetolactate synthase of rigid ryegrass (Lolium rigidum) and their impact on chlorsulfuron activity and plant growth” (Crop Prot, 2012)
